According to the NIST ThermoML archive (doi:10.1021/je1012857):

Test: xn = mol fraction of the nth substance listed
Conditions: 101 kPa, Liquid; for speed of sound: Sing-around technique in a fixed-path interferometer; for viscosity: Capillary tube (Ostwald / Ubbelohde) method

NCCN [ethane-1,2-diamine] + CC(C)CO
Conditions | mass density [kg/m3] | speed of sound [m/s] | viscosity [mPa·s]
293.15 K, x1 = 0.0664 | 809.959 | 1236.6 | –
293.15 K, x1 = 0.0967 | 813.41 | 1250.3 | –
293.15 K, x1 = 0.1652 | 821.052 | 1280.8 | –
293.15 K, x1 = 0.2002 | 824.886 | 1296.8 | –
293.15 K, x1 = 0.2617 | 831.17 | 1324.1 | –
293.15 K, x1 = 0.3019 | 835.134 | 1342.3 | –
293.15 K, x1 = 0.4093 | 844.755 | 1389.6 | –
293.15 K, x1 = 0.5014 | 852.563 | 1431 | –
293.15 K, x1 = 0.6011 | 861.131 | 1478 | –
293.15 K, x1 = 0.6911 | 868.086 | 1520.5 | –
293.15 K, x1 = 0.7887 | 876.941 | 1571.6 | –
293.15 K, x1 = 0.8471 | 882.565 | 1603.7 | –
293.15 K, x1 = 0.8998 | 887.801 | 1634.3 | –
293.15 K, x1 = 0.9391 | 892.054 | 1658.5 | –
298.15 K, x1 = 0.0664 | 806.006 | 1219.4 | 3.231
298.15 K, x1 = 0.0967 | 809.413 | 1233.1 | 3.209
298.15 K, x1 = 0.1652 | 816.964 | 1263.3 | 3.134
298.15 K, x1 = 0.2002 | 820.75 | 1279.2 | 3.094
298.15 K, x1 = 0.2617 | 826.969 | 1306.3 | 3.006
298.15 K, x1 = 0.3019 | 830.903 | 1324.5 | 2.94
298.15 K, x1 = 0.4093 | 840.455 | 1371.4 | 2.724
298.15 K, x1 = 0.5014 | 848.217 | 1412.2 | 2.495
298.15 K, x1 = 0.6011 | 856.736 | 1458.7 | 2.216
298.15 K, x1 = 0.6911 | 863.637 | 1500.6 | 1.958
298.15 K, x1 = 0.7887 | 872.42 | 1550.9 | 1.716
298.15 K, x1 = 0.8471 | 878.003 | 1582.6 | 1.591
298.15 K, x1 = 0.8998 | 883.197 | 1612.7 | 1.501
298.15 K, x1 = 0.9391 | 887.411 | 1636.5 | 1.456
303.15 K, x1 = 0.0664 | 802.02 | 1202.4 | 2.711
303.15 K, x1 = 0.0967 | 805.385 | 1216 | 2.699
303.15 K, x1 = 0.1652 | 812.854 | 1246.1 | 2.648
303.15 K, x1 = 0.2002 | 816.592 | 1261.8 | 2.625
303.15 K, x1 = 0.2617 | 822.547 | 1288.6 | 2.553
303.15 K, x1 = 0.3019 | 826.644 | 1306.7 | 2.502
303.15 K, x1 = 0.4093 | 836.134 | 1353.1 | 2.325
303.15 K, x1 = 0.5014 | 843.853 | 1393.5 | 2.135
303.15 K, x1 = 0.6011 | 852.325 | 1439.5 | 1.895
303.15 K, x1 = 0.6911 | 859.166 | 1480.6 | 1.698
303.15 K, x1 = 0.7887 | 867.883 | 1530.2 | 1.502
303.15 K, x1 = 0.8471 | 873.42 | 1561.5 | 1.404
303.15 K, x1 = 0.8998 | 878.575 | 1591.2 | 1.335
303.15 K, x1 = 0.9391 | 882.76 | 1614.6 | 1.294
308.15 K, x1 = 0.0664 | 797.994 | 1185.4 | 2.18
308.15 K, x1 = 0.0967 | 801.327 | 1198.8 | 2.169
308.15 K, x1 = 0.1652 | 808.708 | 1228.7 | 2.147
308.15 K, x1 = 0.2002 | 812.41 | 1244.4 | 2.135
308.15 K, x1 = 0.2617 | 818.501 | 1271.1 | 2.097
308.15 K, x1 = 0.3019 | 822.366 | 1288.9 | 2.059
308.15 K, x1 = 0.4093 | 831.795 | 1334.9 | 1.924
308.15 K, x1 = 0.5014 | 839.474 | 1374.9 | 1.776
308.15 K, x1 = 0.6011 | 847.896 | 1420.2 | 1.583
308.15 K, x1 = 0.6911 | 854.681 | 1460.9 | 1.446
308.15 K, x1 = 0.7887 | 863.336 | 1509.8 | 1.314
308.15 K, x1 = 0.8471 | 868.829 | 1540.7 | 1.248
308.15 K, x1 = 0.8998 | 873.941 | 1570.1 | 1.191
308.15 K, x1 = 0.9391 | 878.094 | 1593.1 | 1.154
313.15 K, x1 = 0.0664 | 793.931 | 1168.4 | –
313.15 K, x1 = 0.0967 | 797.223 | 1181.6 | –
313.15 K, x1 = 0.1652 | 804.528 | 1211.5 | –
313.15 K, x1 = 0.2002 | 808.187 | 1227.1 | –
313.15 K, x1 = 0.2617 | 814.225 | 1253.6 | –
313.15 K, x1 = 0.3019 | 818.055 | 1271.2 | –
313.15 K, x1 = 0.4093 | 827.425 | 1316.9 | –
313.15 K, x1 = 0.5014 | 835.064 | 1356.4 | –
313.15 K, x1 = 0.6011 | 843.444 | 1400.9 | –
313.15 K, x1 = 0.6911 | 850.175 | 1441.2 | –
313.15 K, x1 = 0.7887 | 858.761 | 1489.6 | –
313.15 K, x1 = 0.8471 | 864.211 | 1520.1 | –
313.15 K, x1 = 0.8998 | 869.284 | 1548.9 | –
313.15 K, x1 = 0.9391 | 873.407 | 1571.7 | –
